According to patent US7101701B2, “Method to reduce contamination when culturing mycobacteria” (The Trustees of the University of Pennsylvania, priority 2004, dated 2006):
Where no end group is shown, it is not given here.

Experiments:
[1] = tested on: at least some strains; settings: when used with at least some strains; cited from earlier work
[2] = tested on: MAP ATCC# 700535; assay: MGIT 960 liquid culture of MAP isolate dilutions, time to positive; type: cell-based, Mycobacterium avium subsp. paratuberculosis; settings: for TTP (days): 600 ul EY
Description: (§1) Middlebrook 7H9 broth was prepared by suspending 4.7 grams Middlebrook 7H9 dehydrated base (BD Diagnostics, Sparks, Md.) in 900 ml of double distilled water. The solution was autoclaved for 20 minutes at 121° C., and stored in a refrigerator when not in use. A 50% egg yolk suspension was stored in a refrigerator. Nisin was prepared in 1–2 M hydrochloride acid (HCl) at a concentration of 100 mg/ml. ANV cocktail (5 mg/ml) was prepared from the individual antibiotics and stored frozen.
Dilutions of MAP ATCC# 700535 were prepared as follows. A working stock vial, at 10^−2, stored at −70° C. freezer, was thawed in a 37° C. incubator. Using individually-wrapped, sterile glass pipettes, a serial dilution series was made in sterile 15 ml conical tubes. One (1) ml of MAP at 10^−2 was diluted into 9 ml of 7H9 medium and mixed well to yield a 10^−3 solution. One ml of this solution was diluted into another tube of 9 ml 7H9 to yield a 10^−4 solution. This process was repeated again to produce a 10^−5 solution. The serial dilutions were plated on HEYM flasks, 100 ul dilution per flask, and placed in an incubator.
(§2) Cultures were set up in MGIT™ tubes (BD Diagnostics, Sparks, Md.). MGIT™ tubes contain an oxygen-sensitive fluorescent compound, tris 4,7-diphenyl-1,10-phenanthroline ruthenium chloride pentahydrate, in silicone base that detects growth by increased fluorescence as oxygen consumption in the culture increases. The tubes were barcoded for scanning in a BACTEC™ MGIT™ 960 machine (BD Diagnostics, Sparks, Md.).
(§3) Vials of nisin and ANV, stored in a standard freezer, were thawed in a 37° C. incubator. Egg yolk, OADC or OACC (BD Diagnostics, Sparks, Md.) and 7H9, stored in a standard refrigerator, were warmed in a 37° C. incubator. Using sterile pipet tips (autoclaved), components were aliquoted into barcoded MGIT™ culture tubes as follows: OADC or OACC (800 μl); 50% egg yolk suspension (600 μl except for […] control tubes having 60 μl. The volume difference in volume made up by 7H9); 7H9; 5 mg/ml ANV (30 μl); 100 mg/ml nisin (quantity determined by desired final concentration); and organism sample (100 μl). 7H9 was added at the quantity needed to bring the final volume of each tube to 8.9 ml, so that the tubes had identical head space. After all components were added, tubes were tightly capped and inverted three times. The tubes were placed in the MGIT™ 960 machine and scanned in after they registered as unknown at the next hourly reading.
(§4) The experiment was designed to test a MAP isolate (ATCC# 700535) at three different concentrations (MAP 10^−3, MAP 10^−4 and MAP 10^−5). Three field samples (processed fecal matter) named Annabelle, Heidi and Meck 42 were also tested in the experiment. Seven conditions were tested for effectiveness against bacterial contamination in mycobacterial cultures: ANV alone, five different nisin concentrations and HCl, the diluent for nisin. Generally, each sample was tested in triplicate for each solution. There were eleven additional control tubes; two tubes for additives (5 μl nisin and 30 μl ANV) and 9 tubes for weekly performance (no ANV and 60 μl 50% egg yolk suspension; WP). The WP tubes were used to monitor test performance and reproducibility over time.

[3] = tested on: Acid Fast bacillus; assay: Acid fast smears (Ziehl-Neelson) of culture tubes; type: cell-based, Mycobacterium avium subsp. paratuberculosis; settings: for Acid Fast Results or CFUs: per replicate tube
Excerpt: One of the most distinctive properties of Mycobacteria is the impermeability of their lipid-rich cell walls to various basic dyes, unless the dye is combined with phenol. Once stained, the cells resist decolorization with acidified organic solvents, and are, therefore called “acid fast.” Acid fast staining methods include, but are not limited to, Ziehl-Neelsen (ZN) carbolfuchsin staining, fluorochrome staining (auromine O and rhodamine B) and Kinyoun carbolfuchsin staining.

[4] = tested on: bacterial contamination and MAP in processed fecal field samples (Annabelle, Heidi, Meck 42); assay: MGIT 960 liquid culture of processed fecal field samples, time to positive / contamination; type: cell-based, Mycobacterium avium subsp. paratuberculosis; settings: for TTP (days): 50000 ug nisin per tube, 1 tube only
Description: as §1
Vials of processed fecal field samples, Annabelle, Heide and Meck 42, stored at −70° C., were thawed in a 37° C. incubator. The samples had been previously processed according to the Cornell modified decontamination and inoculation method as described in Whitlock et al., supra (2000).
as §2, §3, §4

[5] = tested on: chymotrypsin; settings: Pep5 variant; cited from earlier work
[6] = Meck and Annabelle samples, tubes 4F and 7F (10000 ug nisin)

For “L6V gallidermin: gallidermin variant from the literature (IASKFVCTPGCAKTGSFNSYCC; cysteine pairing not given here; also: lantibiotic lanthionine modifications not placed; UniProt P21838 31-52, looked up, variant L6V)”, the antibacterial activity [1] is listed as “enhanced antibacterial activity”.

For “nisin (ITSISLCTPGCKTGALMGCNMKTATCHCSIHVSK; cysteine pairing not given here; also: lantibiotic lanthionine modifications not placed; UniProt P13068 24-57, looked up) [34 amino acid pentacyclic class A lantibiotic peptide produced by Lactococcus lactis; stock 100 mg/ml in HCl]”, the “TTP (days)” value ([2]; MAP 10^−4, 500 ug nisin per tube, three replicate tubes) was 19.3–20.6–No gu's, the “TTP (days)” value ([2]; MAP 10^−4, 50000 ug nisin per tube) was “No gu's” and the “TTP (days)” value ([2]; MAP 10^−5, 5000 ug nisin per tube, three replicate tubes) was 32.4–38.7–2 gu's. For the same substance, the “reduction of TTP compared to 30 ul ANV” value ([2]; nisin at 10,000 ug/tube, tubes 3A and 3F (MAP 10^−5)) was “approximately 30%”, the “inhibitory effect on MAP growth” value ([2]; nisin with 600 ul EY) was “little inhibitory effect on MAP growth” and the “Acid Fast Results or CFUs” value ([3]; Annabelle field sample, 10000 ug nisin per tube) was 4+Pos–4+Pos–ND. For the same substance, the “Acid Fast Results or CFUs” value ([3]; Heidi field sample, 500 ug nisin per tube) was 4+Pos–4+Pos–ND, the “Acid Fast Results or CFUs” value ([3]; Heidi field sample, 1000 ug nisin per tube) was 4+Pos–4+Pos–ND and the “Acid Fast Results or CFUs” value ([3]; Heidi field sample, 5000 ug nisin per tube) was 4+Pos–3+Pos–ND. For the same substance, the “Acid Fast Results or CFUs” value ([3]; Heidi field sample, 10000 ug nisin per tube) was 4+Pos–ND–ND, the “Acid Fast Results or CFUs” value ([3]; MAP 10^−3, 10000 ug nisin per tube) was 4+Pos–4+Pos–ND and the “Acid Fast Results or CFUs” value ([3]; Meck 42 field sample, 1000 ug nisin per tube) was “ND–ND–4+Pos”. For the same substance, the “Acid Fast Results or CFUs” value ([3]; Meck 42 field sample, 5000 ug nisin per tube) was “BC–4+Pos–4+Pos”, the “Acid Fast Results or CFUs” value ([3]; Meck 42 field sample, 10000 ug nisin per tube) was “ND–4+Pos–4+Pos” and the “AFB (acid-fast bacilli smears)” value [3, 6] was 4+Positive. The “time to recover TNTC animals” value ([4]; 600 ul 50% egg yolk suspension, nisin approximately 5000 to 10,000 ug per tube) was under 15 days, the “TTP (days)” value ([4]; Annabelle field sample) was 43.7 (1 tube only) days and the “TTP (days)” value ([4]; Heidi field sample) was “No gu's (1 tube only)”. For the same substance, the “TTP (days)” value ([4]; Meck 42 field sample) was 54.4 (1 tube only) days, the “time at which tubes flagged positive” value [4, 6] was 14 to 17 days and the “control of non-mycobacterial contamination and MAP growth” value ([4]; field samples, particularly at 10,000 ug nisin) was “controlled non-mycobacterial contamination with little retardation of MAP growth”.

In the case of “A19C Pep5: Pep5 variant from the literature (TAGPAIRASVKQCQKTLKCTRLFTVSCKGKNGCK; also: lantibiotic Pep5: thioether rings and dehydro residues not placed; UniProt P19578 27-60, looked up, variant A19C)”, the stability to chymotrypsin [5] is listed as “more stable to chymotrypsin”.
